{"source": "patent EP0237472A2", "about": "“An ameliorating agent for pulmonary fibrosis and the use thereof” (Zyma SA, priority 1986, dated 1987)", "key": {"[1]": {"assay": "acute oral toxicity (LD50) to male mice", "settings": "mouse, in vivo"}, "[2]": {"tested_on": "female Sprague-Dawley rats", "assay": "CCl4-induced lung fibrosis (lung collagen accumulation) in rats", "assay_type": "in vivo", "experimental": "The animals used were female Sprague-Dawley rats fed on a commercial diet (Hankkija Cy, Helsinki, Finland). Forty rats were divided into four groups of 10, the first serving as a control group. In order to investigate the effect of Compound 4 on lung collagen accumulation, the injury was induced by injecting carbon tetrachloride (CC14) intraperitoneally at doses of 0.1 ml/100 g body weight (diluted with an equal volume of paraffin oil) twice a week for 40 days. The third group received simultaneous doses of CCl4 and Compound 4. Compound 4 was suspended in arabic gum and given by gastric intubation at doses of 100 mg/kg body weight 5 times weekly for 40 days. The fourth group received only Compound 4. Two animals both in the CC14 group died during the experiment.\nAt the end of the experiment, the rats were anaesthetized with ether, weighed, and decapitated. The lungs were rapidly removed, weighed and the right one of them stored at -70°C until assayed. Tissue specimens for the determination of hydroxyproline and total protein were homogenized with an Ultra-Turrax homogenizer at 0°C in 0.5 M acetic acid (5 ml/g of tissue), dialyzed against 0.5 M acetic acid, and hydrolyzed in 6 M HC1 at 120°C overnight. Tissue hydroxyproline was assayed by the method of Kivirikko et al. and tissue total protein using the a-amino nitrogen method of Rubinstein and Pryce.\nThe left lung was fixed by slowly injecting a 4% formaldehyde and 1% glutaraldehyde solution into the main bronchus with the 1 ml syringe under magnifying lens control. Inflation of the lungs with fixative was continued until the pleura was smooth and the organ appeared to be filled. The bronchus was then left unclosed and the lungs were placed in the same solution until fixed. When the bronchus is left unclosed, the human lungs, at least, seem to assume a fairly constant volume during fixation, a little greater than the functional residual capacity. The lungs were then sliced sagittally and the slices embedded in paraffin. Sections were cut at 5 µm and stained with heamatoxylin-eosin, Pearl's iron, van Gieson's and Verhoeff's elastic stains."}, "[3]": {"settings": "CCl4 + Compound 4 (group M+I), CCl4 0.1 ml/100 g i.p. twice a week, Compound 4 100 mg/kg orally 5 times weekly, 40 days"}, "[4]": {"settings": "Compound 4 alone (group M), 100 mg/kg by gastric intubation 5 times weekly for 40 days, no CCl4"}}}
{"smiles": "COC(=O)C(C(=O)OC)=C1SC=CS1", "note": "[Compound 1]", "values": [{"measurement": "LD50", "setting": "[1]", "value": "> 6000", "unit": "mg/kg"}]}
{"smiles": "CC(C)COC(=O)C(C(=O)OCC(C)C)=C1SC=CS1", "note": "[Compound 6]", "values": [{"measurement": "LD50", "setting": "[1]", "value": 4700, "unit": "mg/kg"}]}
{"smiles": "CC(C)OC(=O)C(C(=O)OC(C)C)=C1SC=CS1", "note": "[Compound 4]", "values": [{"measurement": "Lung relative protein (mg/g of lung weight)", "setting": "[2]; [3]", "value": "20.61±2.05 mg/g of lung weight"}, {"measurement": "Lung total protein (mg/lungs)", "setting": "[2]; [3]", "value": "40.07±6.05", "unit": "mg/lungs"}, {"measurement": "Lung weight/ body weight (%)", "setting": "[2]; [3]", "value": "0.89±0.17", "unit": "%"}, {"measurement": "total hydroxyproline content of the lungs", "setting": "[2]; CCl4 + Compound 4, 100 mg/kg orally, 40 days (Figure 1)", "value": "normalized the values"}, {"measurement": "foci of necrotic alveolar walls", "setting": "[2]; CCl4 + Compound 4, histology", "value": "All the lungs showed some foci of necrotic alveolar walls"}, {"measurement": "interstitial fibrosis", "setting": "[2]; CCl4 + Compound 4 compared with CCl4-induced rats without Compound 4, histology", "value": "less interstitial fibrosis"}, {"measurement": "Lung relative protein (mg/g of lung weight)", "setting": "[2]; [4]", "value": "22.20±2.76 mg/g of lung weight"}, {"measurement": "Lung total protein (mg/lungs)", "setting": "[2]; [4]", "value": "38.31±4.90", "unit": "mg/lungs"}, {"measurement": "Lung weight/ body weight (%)", "setting": "[2]; [4]", "value": "0.81±0.12", "unit": "%"}, {"measurement": "lungs exhibiting a fairly normal alveolar pattern", "setting": "[2]; rats which received CCl4 and Compound 4, histology", "value": "Five out of the nine"}, {"measurement": "lungs showing variable evidence of inflammatory reaction with minimal oedema", "setting": "[2]; rats which received CCl4 and Compound 4, nine lungs, histology", "value": "four"}, {"measurement": "alveolar pattern in the lungs", "setting": "[2]; ten rats which received Compound 4 alone, histology", "value": "normal"}]}
{"smiles": "CCCOC(=O)C(C(=O)OCCC)=C1SC=CS1", "note": "[Compound 3]", "values": [{"measurement": "LD50", "setting": "[1]", "value": "> 6000", "unit": "mg/kg"}]}
{"smiles": "CCCCOC(=O)C(C(=O)OCCCC)=C1SC=CS1", "note": "[Compound 5]", "values": [{"measurement": "LD50", "setting": "[1]", "value": "> 6000", "unit": "mg/kg"}]}
{"smiles": "COC(=O)C(C(=O)OCC(C)C)=C1SC=CS1", "note": "[Compound 8]", "values": [{"measurement": "LD50", "setting": "[1]", "value": 5800, "unit": "mg/kg"}]}
{"smiles": "CCOC(=O)C(C(=O)OC(C)C)=C1SC=CS1", "note": "[Compound 7]", "values": [{"measurement": "LD50", "setting": "[1]", "value": 2700, "unit": "mg/kg"}]}
{"smiles": "CCOC(=O)C(C(=O)OCC)=C1SC=CS1", "note": "[Compound 2]", "values": [{"measurement": "LD50", "setting": "[1]", "value": 4900, "unit": "mg/kg"}]}
